Experimental data reported in patent US20230406865A1, “CRYSTAL FORM OF FREE BASE OF INHIBITOR CONTAINING BICYCLIC RING DERIVATIVE AND PREPARATION METHOD AND APPLICATION OF CRYSTAL FORM” (SHANGHAI HANSOH BIOMEDICAL CO., LTD., priority 2020, published 2023).

What was measured:
[1] = tested on: phosphorylation of ERK, a downstream signal factor of TT cells; test: Inhibition of ERK phosphorylation in TT cells (Western Blot); format: cell-based, human; settings: for inhibition of ERK phosphorylation: 2 hours, TT cells; for inhibition of phosphorylation level of ERK in TT cells: 3.7-300 nM, 2 hours at 37° C., Western Blot
Description: 2.2 Experimental Reagents: • pERK antibody was purchased from Cell Signaling Technology Company, the article number was 43705; • Total ERK antibody was purchased from Cell Signaling Technology Company, the article number was 4696S; • The internal reference GAPDH was purchased from Cell Signaling Technology Company, the article number was 51745; • The fluorescent secondary antibodies were purchased from LI-COR Company, the article numbers were P/N 925-68071 and P/N 926-32210.
In this experiment, the inhibitory effect of compounds on the phosphorylation level of ERK, a downstream signaling factor in TT cells was measured by Western Blot method. When TT cells were cultured to the appropriate fusion level, the cells were collected and adjusted to the appropriate cell concentration using complete medium, the cell suspension was spread in a 24-well plate, 1 mL per well, and placed in the wall of a 37° C., 5% CO2 incubator overnight, and compound dilutions of different concentrations (3.7 nM, 11.1 nM, 33.3 nM, 100 nM, 300 nM) were added at 37° C. and acted for 2 hours; the cell supernatant was aspirated, washed one time with PBS, and the proteins were collected with lysate; after protein denaturation, Western blot experiments were performed: performing protein electrophoresis at 120V for approximately 75 minutes, followed by 45 minutes of transfer to PVDF membranes at 10V with a semi-dry transfer instrument, enclosing at 5% BSA for 1 hour at room temperature, and then PVDF membranes were cut into strips of appropriate size and incubated with prepared antibody dilutions overnight at 4° C. and washed 6 times with TBST, followed by incubating with goat anti-mouse secondary antibody and goat anti-rabbit secondary antibody for 1 hour at room temperature, and the membrane was washed 6 times with TBST for imaging in the Biorad ChemiDoc™ MP Imaging System.
The inhibitory effect of compounds on ERK phosphorylation levels in TT cells at different concentrations was determined by detecting protein bands.

[2] = target: T1, CCDC6-RET (Homo sapiens, UniProt P07949); test: HTRF kinase activity inhibition, CCDC6-RET; format: biochemical; settings: ATP at Km
T1 construct: purchased SignalChem R02-19BG-05; the other entry of the earlier key: CCDC6 (Q16204, Coiled-coil domain-containing protein 6)
T1 sequence (P07949 with tags, fused parts or gaps): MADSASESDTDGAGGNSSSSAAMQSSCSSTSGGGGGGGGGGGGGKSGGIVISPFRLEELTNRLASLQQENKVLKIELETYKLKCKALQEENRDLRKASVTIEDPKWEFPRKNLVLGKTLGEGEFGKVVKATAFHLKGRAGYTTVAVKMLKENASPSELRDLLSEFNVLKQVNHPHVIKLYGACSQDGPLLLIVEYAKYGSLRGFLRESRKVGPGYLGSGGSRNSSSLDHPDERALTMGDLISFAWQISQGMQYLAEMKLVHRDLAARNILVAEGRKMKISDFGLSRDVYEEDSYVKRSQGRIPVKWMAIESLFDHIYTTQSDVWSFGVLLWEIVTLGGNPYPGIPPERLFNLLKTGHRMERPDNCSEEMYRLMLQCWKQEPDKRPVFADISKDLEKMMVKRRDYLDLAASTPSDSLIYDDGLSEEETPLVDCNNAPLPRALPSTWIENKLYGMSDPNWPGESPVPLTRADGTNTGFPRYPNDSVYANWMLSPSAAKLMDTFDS
Description: 2.2 Experimental Reagents: • RET enzyme was purchased from Carna Company, and the article number was 08-159; • RET M918T enzyme was purchased from Carna Company, and the article number was 08-508; • KIF5B-RET was purchased from SignalChem Company, the article number was R02-19FG-05; • CCDC6-RET was purchased from SignalChem Company, the article number was R02-19BG-05; • RET V804M enzyme was purchased from Thermofisher Company, and the article number was PV6223; • RET V804L enzyme was purchased from Thermofisher Company, and the article number was PV4397; • HTRF KinEASE-TK kit was purchased from Cisbio Company, and the article number was 62TK0PEC; • ATP was purchased from Thermofisher Company, and the article number was PV3227; • 384-well plate was purchased from PerkinElmer Company, and the article number was 6007290.
In this experiment, a homogeneous time-resolved fluorescence (HTRF) method was used for the detection of compounds on RET kinase activity.

[3] = tested on: xenograft tumor of human myeloid thyroid cancer cell TT; test: Subcutaneous xenograft tumor model of human myeloid thyroid cancer cell TT; format: in vivo, BALB/c nude mice
Protocol: BALB/c nude mice, female, 6-8 weeks old, weighing 18-22 g, provided by Shanghai Lingchang Biotechnology Co., Ltd.
TT cells were cultured in vitro in a monolayer under the following conditions: F-12K medium with 20% heat-inactivated fetal bovine serum and 1% penicillin-streptomycin double antibodies at 37° C. and 5% CO2. Digestion with trypsin-EDTA was performed to treat the passage twice a week. When cells were in an exponential growth period, cells were collected, counted and inoculated.
TT cells were collected when they were full in a logarithmic growth period, ensuring vitality over 90%. 0.2 mL of cell suspension containing about 1×10^7 of TT cells (cells suspended in basic F-12K medium and added with 50% Matrigel) was inoculated subcutaneously into the right back […] of each mouse when the mean volume of the tumor reached about 150-200 mm^3 to start group administration.
1. The day of grouping was day 0 (DO). The interval of BID administration was 6-8 h/18-16 h. The first administration was given in the afternoon of day DO and the last administration was given in the morning of day D21.
2. Administration volume: 10 μL/g according to the body weight of nude mice.
Animal grouping: animals were weighed before administration and the tumor volume was measured. Animals were randomly grouped according to tumor volume (randomized grouping design) with 5 animals per group.
Experimental index: the diameter of tumor was measured by vernier caliper twice a week. The tumor volume was calculated by the formula: V=a×b^2/2, a and b denote the long and short diameter of the tumor, respectively. The tumor inhibition efficacy of the compounds was evaluated by TGI (%). TGI (%)=(1-(TVTreatment/Dx−TVTreatment/D1)/(TVControl/Dx−TVControl/D1))×100%.

Structure (SMILES) | inhibition of ERK phosphorylation ([1]; 3.7 nM) | inhibition of ERK phosphorylation ([1]; 11.1 nM) | inhibition of ERK phosphorylation ([1]; 33.3 nM) | inhibition of ERK phosphorylation ([1]; 100 nM) | inhibition of ERK phosphorylation ([1]; 300 nM) | inhibition of phosphorylation level of ERK in TT cells [1] | IC50 [2] [nM] | Tumor volume (mean ± SEM) d 0 ([3]; 10 mg/kg oral BID) [mm^3] | Tumor inhibition rate/TGI d 22 ([3]; 10 mg/kg oral BID) [%] | Tumor volume (mean ± SEM) d 22 ([3]; 10 mg/kg oral BID) [mm^3] | Tumor volume (mean ± SEM) d 0 ([3]; 30 mg/kg oral BID) [mm^3] | Tumor inhibition rate/TGI d 22 ([3]; 30 mg/kg oral BID) [%] | Tumor volume (mean ± SEM) d 22 ([3]; 30 mg/kg oral BID) [mm^3]
C#C[C@@](C)(O)COc1cc(-c2ccc(N3CC4CC(C3)N4Cc3ccc(OC)nc3)nc2)c2c(C#N)cnn2c1 [Embodiment 63, 6-(((R)-2-hydroxy-2-methylbut-3-yn-1-yl)oxy)-4-(6-(6-((6-methoxypyridin-3-yl)methyl)-3,6-diazabicyclo[3.1.1]heptan-3-yl)pyridin-3-yl)pyrazolo[1,5-a]pyridine-3-carbonitrile] | about half | almost completely inhibited | almost completely inhibited | almost completely inhibited | almost completely inhibited | significantly inhibit | 0.85 |  |  |  |  |  | 
COc1ccc(CN2C3CC2CN(c2ccc(-c4cc(N5CC(C)(C#N)C5)cn5ncc(C#N)c45)cn2)C3)cn1 [Embodiment 77, 6-(3-Cyano-3-methylazetidin-1-yl)-4-(6-(6-((6-methoxypyridin-3-yl)methyl)-3,6-diazabicyclo[3.1.1]heptan-3-yl)pyridin-3-yl)pyrazolo[1,5-a]pyridine-3-carbonitrile] |  |  |  |  |  |  | 0.98 | 205.23 ± 16.57 | 129.77 | 144.14 ± 8.95 |  |  | 
C#C[C@](C)(O)COc1cc(-c2ccc(N3CC4CC(C3)N4Cc3ccc(OC)nc3)nc2)c2c(C#N)cnn2c1 [Embodiment 64, 6-(((S)-2-hydroxy-2-methylbut-3-yn-1-yl)oxy)-4-(6-(6-((6-methoxypyridin-3-yl)methyl)-3,6-diazabicyclo[3.1.1]heptan-3-yl)pyridin-3-yl)pyrazolo[1,5-a]pyridine-3-carbonitrile] | the inhibition level was weaker | half | the degree of inhibition was reduced | completely inhibit | completely inhibit | significantly inhibit | 1.74 |  |  |  |  |  | 
COc1ncc(CN2C3CC2CN(c2ccc(-c4cc(C#CC(C)(C)O)cn5ncc(C#N)c45)cn2)C3)cc1F [Embodiment 18, 4-(6-(6-((5-Fluoro-6-methoxypyridin-3-yl)methyl)-3,6-diazabicyclo[3.1.1]heptan-3-yl)pyridin-3-yl)-6-(3-hydroxy-3-methylbut-1-yn-1-yl)pyrazolo[1,5-a]pyridine-3-carbonitrile] |  |  |  |  |  |  |  |  |  |  | 199.73 ± 24.07 | 99.64 | 203.56 ± 31.74
